According to patent US11236045B2, “Substituted sulfoximine compounds” (CADILA HEALTHCARE LIMITED, priority 2017, dated 2022):
pIC50: −log10 of the molar value.

Tested on: IL-1β
Assay: In vitro IL-1β inhibition in PMA-differentiated, LPS-primed, ATP-stimulated THP1 cells
Assay type: cell-based
Details: Homo sapiens, THP-1; THP1 monocytes differentiated with PMA, primed with 500 ng/ml LPS 4 hrs, compound 30 min, 5 mM ATP 1 hr; IL-1b in supernatant; read-out: in vitro IL-1β inhibitory activity IC50
Protocol: THP1 ([…]) monocytes were differentiated with PMA (Phorbol 12-myristate 13-acetate) (100 ng/ml) and incubated at 37° C. for 20 h in presence of 5% CO2. 2×10^5 differentiated cells were plated per well of 96 well tissue culture plates. The cells were primed using 500 ng/ml Lipopolysaccharide and incubating for 4 hrs under the same condition. The cells were then treated with various concentrations of the compounds for 30 min followed by treatment with 5 mM ATP for 1 hr. The supernatants were collected and analysed by IL-1b (Mabtech Cat #3415-1H-20) or TNF-a (Mabtech; Cat #3510-1H-20) detection kit. The data were analyzed using GraphPad Prism V7.0. Dose Response Curve (DRC) was constructed to determine the IC50 value by fitting percentage cell survival data to the GraphPad Prism using nonlinear regression analysis.

| SMILES | pIC50 |
| --- | --- |
| N#CN=S(=O)(NC(=O)Nc1c2c(cc3c1CCC3)CCC2)c1cccs1 (centres unmarked) [Example 51, N′-cyano-N-((1,2,3,5,6,7-hexahydro-s-indacen-4-yl)carbamoyl)thiophene-2-sulfonimidamide] | 7.72 |
| COc1ccc(S(=O)(=NC#N)NC(=O)Nc2c3c(cc4c2CCC4)CCC3)cn1 (centres unmarked) [Example 24, N′-cyano-N-((1,2,3,5,6,7-hexahydro-s-indacen-4-yl)carbamoyl)-6-methoxypyridine-3-sulfonimidamide] | 7.47 |
| N#CN=S(=O)(NC(=O)Nc1c2c(cc3c1CCC3)CCC2)c1cc(F)cc(F)c1 (centres unmarked) [Example 44, N′-cyano-3,5-difluoro-N-((1,2,3,5,6,7-hexahydro-s-indacen-4-yl)carbamoyl)benzenesulfonimidamide] | 7.20 |
| N#CN=S(=O)(NC(=O)Nc1c2c(cc3c1CCC3)CCC2)c1ccc(Cl)cc1 (centres unmarked) [Example 26, 4-chloro-N′-cyano-N-((1,2,3,5,6,7-hexahydro-s-indacen-4-yl)carbamoyl)benzenesulfonimidamide] | 7.64 |
| COc1ccc(S(=O)(=NC#N)NC(=O)Nc2c3c(cc4c2CCC4)CCC3)cc1 (centres unmarked) [Example 19, N′-cyano-N-((1,2,3,5,6,7-hexahydro-s-indacen-4-yl)carbamoyl)-4-methoxybenzenesulfonimidamide] | 7.64 |
| N#CN=S(=O)(NC(=O)Nc1c2c(cc3c1CCC3)CCC2)c1ccc(Br)cc1 (centres unmarked) [Example 27, 4-bromo-N′-cyano-N-((1,2,3,5,6,7-hexahydro-s-indacen-4-yl)carbamoyl)benzenesulfonimidamide] | 7.57 |
| N#CN=S(=O)(NC(=O)Nc1c2c(cc3c1CCC3)CCC2)c1cccc(F)c1 (centres unmarked) [Example 58, N′-cyano-3-fluoro-N-((1,2,3,5,6,7-hexahydro-s-indacen-4-yl)carbamoyl)benzenesulfonimidamide] | 7.42 |
| C=C(C)c1coc(S(=O)(=NC#N)NC(=O)Nc2c3c(cc4c2CCC4)CCC3)c1 (centres unmarked) [Example 36, N′-cyano-N-((1,2,3,5,6,7-hexahydro-s-indacen-4-yl)carbamoyl)-4-(prop-1-en-2-yl)furan-2-sulfonimidamide] | 7.49 |
| N#CN=S(=O)(NC(=O)Nc1c2c(cc3c1CCC3)CCC2)c1cccc(C(O)(C(F)(F)F)C(F)(F)F)c1 (centres unmarked) [Example 43, N′-cyano-3-(1,1,1,3,3,3-hexafluoro-2-hydroxypropan-2-yl)-N-((1,2,3,5,6,7-hexahydro-s-indacen-4-yl)carbamoyl)benzenesulfonimidamide] | 7.57 |
| COc1cccc(S(=O)(=NC#N)NC(=O)Nc2c3c(cc4c2CCC4)CCC3)c1 (centres unmarked) [Example 38, N′-cyano-N-((1,2,3,5,6,7-hexahydro-s-indacen-4-yl)carbamoyl)-3-methoxybenzenesulfonimidamide] | 7.77 |
| N#CN=S(=O)(NC(=O)Nc1c2c(cc3c1CCC3)CCC2)c1ccc(F)cc1F (centres unmarked) [Example 45, N′-cyano-2,4-difluoro-N-((1,2,3,5,6,7-hexahydro-s-indacen-4-yl)carbamoyl)benzenesulfonimidamide] | 7.64 |
| Cc1cccc(S(=O)(=NC#N)NC(=O)Nc2c3c(cc4c2CCC4)CCC3)n1 (centres unmarked) [Example 53, N′-cyano-N-((1,2,3,5,6,7-hexahydro-s-indacen-4-yl)carbamoyl)-6-methylpyridine-2-sulfonimidamide] | 7.35 |
| N#CN=S(=O)(NC(=O)Nc1c2c(cc3c1CCC3)CCC2)c1ccc(F)cc1 (centres unmarked) [Example 21, N′-cyano-4-fluoro-N-((1,2,3,5,6,7-hexahydro-s-indacen-4-yl)carbamoyl)benzenesulfonimidamide] | 7.21 |
| N#CN=S(=O)(NC(=O)Nc1c2c(cc3c1CCC3)CCC2)c1ccc(C(F)(F)F)cc1 (centres unmarked) [Example 29, N′-cyano-N-((1,2,3,5,6,7-hexahydro-s-indacen-4-yl)carbamoyl)-4-(trifluoromethyl)-benzenesulfonimidamide] | 7.49 |
| N#CN=S(=O)(NC(=O)Nc1c2c(cc3c1CCC3)CCC2)c1cccc([N+](=O)[O-])c1 (centres unmarked) [Example 18, N′-cyano-N-((1,2,3,5,6,7-hexahydro-s-indacen-4-yl)carbamoyl)-3-nitrobenzenesulfonimidamide] | 7.82 |

Molecules with a higher pIC50, results first:

| pIC50 | SMILES |
| --- | --- |
| 7.89 | N#CN=S(=O)(NC(=O)Nc1c2c(cc3c1CCC3)CCC2)c1ccc2c(c1)OCCO2 (centres unmarked) [Example 40, N′-cyano-N-((1,2,3,5,6,7-hexahydro-s-indacen-4-yl)carbamoyl)-2,3-dihydrobenzo[b][1,4]dioxine-6-sulfonimidamide] |
| 7.89 | N#CN=S(=O)(NC(=O)Nc1c2c(cc3c1CCC3)CCC2)c1ccc(C2(O)COC2)cc1 (centres unmarked) [Example 35, N′-cyano-N-((1,2,3,5,6,7-hexahydro-s-indacen-4-yl)carbamoyl)-4-(3-hydroxyoxetan-3-yl)benzenesulfonimidamide] |
| 7.92 | CC(C)(O)c1ccc(S(=O)(=NC#N)NC(=O)Nc2c3c(cc4c2CCC4)CCC3)cc1 (centres unmarked) [Example 17, N′-cyano-N-((1,2,3,5,6,7-hexahydro-s-indacen-4-yl)carbamoyl)-4-(2-hydroxypropan-2-yl)benzenesulfonimidamide] |
| 8.11 | CC(C)(O)c1cc(S(=O)(=NC#N)NC(=O)Nc2c3c(cc4c2CCC4)CCC3)ccc1F (centres unmarked) [Example 63, N′-cyano-4-fluoro-N-((1,2,3,5,6,7-hexahydro-s-indacen-4-yl)carbamoyl)-3-(2-hydroxypropan-2-yl)benzenesulfonimidamide] |
| 8.11 | CC(C)(O)c1ccc(F)c(S(=O)(=NC#N)NC(=O)Nc2c3c(cc4c2CCC4)CCC3)c1 (centres unmarked) [Example 64, N′-cyano-2-fluoro-N-((1,2,3,5,6,7-hexahydro-s-indacen-4-yl)carbamoyl)-5-(2-hydroxypropan-2-yl)benzenesulfonimidamide] |
| 8.25 | N#CN=S(=O)(NC(=O)Nc1c2c(cc3c1CCC3)CCC2)c1ccc(Br)s1 (centres unmarked) [Example 37, 5-bromo-N′-cyano-N-((1,2,3,5,6,7-hexahydro-s-indacen-4-yl)carbamoyl)thiophene-2-sulfonimidamide] |
| 8.32 | CC(C)(O)c1ccc(S(=O)(=NC#N)NC(=O)Nc2c3c(cc4c2CCC4)CCC3)s1 (centres unmarked) [Example 41, N′-cyano-N-((1,2,3,5,6,7-hexahydro-s-indacen-4-yl)carbamoyl)-5-(2-hydroxypropan-2-yl)thiophene-2-sulfonimidamide] |
| 8.36 | COc1ccc(S(=O)(=NC#N)NC(=O)Nc2c3c(cc4c2CCC4)CCC3)cc1OC (centres unmarked) [Example 52, N′-cyano-N-((1,2,3,5,6,7-hexahydro-s-indacen-4-yl)carbamoyl)-3,4-dimethoxybenzene-sulfonimidamide] |
| 8.40 | N#CN=S(=O)(Cc1ccc(C#N)cc1)NC(=O)Nc1c2c(cc3c1CCC3)CCC2 (centres unmarked) [Example 66, N′-cyano-1-(4-cyanophenyl)-N-((1,2,3,5,6,7-hexahydro-s-indacen-4-yl)carbamoyl)-methanesulfonimidamide] |
| 8.46 | N#CN=S(=O)(Cc1ccccc1)NC(=O)Nc1c2c(cc3c1CCC3)CCC2 (centres unmarked) [Example 48, N′-cyano-N-((1,2,3,5,6,7-hexahydro-s-indacen-4-yl)carbamoyl)-1-phenylmethanesulfonimidamide] |
| 8.48 | CC(C)(O)c1coc(S(=O)(=NC#N)NC(=O)Nc2c3c(cc4c2CCC4)CCC3)c1 (centres unmarked) [Example 39, N′-cyano-N-((1,2,3,5,6,7-hexahydro-s-indacen-4-yl)carbamoyl)-4-(2-hydroxypropan-2-yl)furan-2-sulfonimidamide] |
| 8.52 | CC(C)(O)c1cccc(S(=O)(=NC#N)NC(=O)Nc2c3c(cc4c2CCC4)CCC3)c1 (centres unmarked) [Example 34, N′-cyano-N-((1,2,3,5,6,7-hexahydro-s-indacen-4-yl)carbamoyl)-3-(2-hydroxypropan-2-yl)benzenesulfonimidamide] |
| 8.62 | Cc1ccc(F)c(S(=O)(=NC#N)NC(=O)Nc2c3c(cc4c2CCC4)CCC3)c1 (centres unmarked) [Example 42, N′-cyano-2-fluoro-N-((1,2,3,5,6,7-hexahydro-s-indacen-4-yl)carbamoyl)-5-methylbenzene-sulfonimidamide] |
| 8.90 | CC(C)(O)c1cncc(S(=O)(=NC#N)NC(=O)Nc2c3c(cc4c2CCC4)CCC3)c1 (centres unmarked) [Example 65, N′-cyano-N-((1,2,3,5,6,7-hexahydro-s-indacen-4-yl)carbamoyl)-5-(2-hydroxypropan-2-yl)pyridine-3-sulfonimidamide] |
